Measured values taken from publication PMC8126241, “Active Components from Cassia abbreviata Prevent HIV-1 Entry by Distinct Mechanisms of Action” (International Journal of Molecular Sciences, 2021).
Read-outs that look alike come from different tables or passages of the source.

Columns and labels:
[1] = system: PBMCs; format: cell-based, human
Description: To assess drug cytotoxicity, PBMCs were incubated with or without drugs in a 96-well round bottom plate (Thermo Fisher, Asse, Belgium) at 2 × 10^5/200 μL/well. After 2 days, cells were washed with PBS and stained with 0.1 μL near-IR fluorescent reactive dye (Life technologies, Ghent, Belgium) in 100 μL PBS for 20 min at room temperature in dark. Stained cells were measured by flow cytometry (FACSCanto, BD biosciences, Belgium).

[2] = system: HIV-1 gp120 / CD4 binding; experiment: CD4-gp120 interaction assay (ELISA); settings: in-house ELISA
Description: Human soluble CD4 (sCD4) was immobilized in a 96-well plate by adding 100 ng sCD4 (R&D Systems, Belgium) in 100 μL PBS per well and incubated at 4 °C. After 24 h, the CD4 coated plate was washed with 1% BSA-PBS and blocked by adding 100μL 5% BSA-PBS per well for 1 h at 4 °C. The coated plate was then washed and incubated with or without drugs for 1 h at 4 °C. After washing, 100 ng HIV-1 gp120 protein (Fitzgerald, Acton, MA, USA) was added into the plate and kept for 1 h at 4 °C. The plate was washed, and anti-HIV-1 gp120 (Aalto Bio Reagents, Dublin, Ireland) (100 ng/100 μL PBS) was added. After 1 h, the plate was washed and anti-sheep HRP (Sigma, Belgium) (100 ng/100 μL PBS) was added. After 1 h incubation at 4 °C, 100 μL o-phenylenediamine dihydrochloride (OPD) (Thermo Fisher, Asse, Belgium) was added and incubated for 20 min in dark. One hundred microliters 0.5M H2SO4 was finally added to stop the reaction. OD492 and OD630 were measured by POLARstart Omega Plate Reader. OD492 − OD630 was calculated.

[3] = system: Yellow fever virus; experiment: microbe, parasite or virus in culture; format: cell-based; settings: Vero
[4] = system: Influenza A/H3N2 A/HK/7/87; experiment: Broad spectrum antiviral activity, MDCK cells; format: cell-based; settings: Influenza A virus
[5] = system: Punta toro virus; experiment: Broad spectrum antiviral activity, vero cells; format: cell-based
[6] = system: PBMCs; format: cell-based, human; remark: listed apart in the source
Description: To measure apoptosis, PBMCs were incubated with or without drugs in a 96-well round bottom plate at 2 × 10^5/200 μL/well. After 2 days, cells were washed with PBS and stained with 2.5 μL Annexin-V-APC (Biosciences, Aalst, Belgium) in 100 μL staining buffer containing 10 mmol/L HEPES pH7.4, 140 mmol/L NaCl, and 2.5 mmol/L CaCl2 for 20 min at room temperature in dark. Cells were then washed with staining buffer and incubated with 100 μL 0.1 μg/mL propidium iodide (PI) (Thermo Fisher, Asse, Belgium) for 5 min at room temperature in dark. Stained cells were measured by flow cytometry (FACSCanto, BD, Aalst, Belgium).

[7] = system: Vesicular stomatitis virus; experiment: microbe, parasite or virus in culture; format: cell-based
[8] = system: HIV-1; settings: read-out: IC50 HIV-1 replication; ref Clouser et al. [24]; cited from earlier work
[9] = system: Respiratory syncytial virus; experiment: Broad spectrum antiviral activity, HeLa cells; format: cell-based; settings: human respiratory syncytial virus

Q: What does the source list for `Oc1cc(O)cc(/C=C/c2ccc(O)c(O)c2)c1` [piceatannol, trans-3,3′,4,5′-tetrahydroxystilbene]?
A: Cytotoxicity in PBMCs [1]: not cytotoxic; Inhibition of gp120/CD4 binding [2]: did not; IC50 [3]: > 100 µM; IC50 [4]: > 100 µM; IC50 [5]: > 100 µM; Induction of apoptosis in PBMCs [6]: did not induce any apoptosis; IC50 [7]: 79.2 ± 17 µM; IC50 ([7]; Vesicular stomatitis virus, U-87 MG): 79.2 ± 17.2 µM; IC50 [8]: 21.4 µM; IC50 [9]: > 100 µM
